Measurements published in PubChem BioAssay (NCI).
Where “and” joins values, the source holds several entries; their conditions need not be identical. Equal entries are not always repeated.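 48-hour exposure; five concentrations; linearly interpolated endpoints. At the GI50, growth is halved. Definition used: TGI = concentration required for complete inhibition of growth.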

How the values were obtained:
Experiment in all cases: NCI tumour cell line growth inhibition, 48 h
MDA-N = test system: MDA-N
DMS 273 small cell lung = test system: DMS 273 small cell lung
HOP-18 NSCLC = test system: HOP-18 NSCLC
RXF-631 renal = test system: RXF-631 renal
SNB-78 CNS = test system: SNB-78 CNS
DMS 114 small cell lung = test system: DMS 114 small cell lung
XF 498 CNS = test system: XF 498 CNS
LXFL 529 NSCLC = test system: LXFL 529 NSCLC
M19-MEL melanoma = test system: M19-MEL melanoma

SMILES	TGI (MDA-N)	TGI (DMS 273 small cell lung)	TGI (HOP-18 NSCLC)	TGI (RXF-631 renal)	TGI (SNB-78 CNS)	TGI (DMS 114 small cell lung)	TGI (XF 498 CNS)	TGI (LXFL 529 NSCLC)	TGI (M19-MEL melanoma)	GI50 (HOP-18 NSCLC)	GI50 (SNB-78 CNS)	GI50 (DMS 114 small cell lung)	GI50 (XF 498 CNS)	GI50 (M19-MEL melanoma)	GI50 (DMS 273 small cell lung)	GI50 (LXFL 529 NSCLC)
C=CC1(C)CCC2C(=CCC3C2(C)CC(O)C(O)C3(C)COC2OC(CO)C(O)C(O)C2O)C1 (configuration not stated)	> 100 µM															
O=S1OC(c2ccccc2)(c2ccccc2)C(c2ccccc2)(c2ccccc2)O1		> 100 µM	> 100 µM	> 100 µM	> 100 µM	> 100 µM	> 100 µM	> 100 µM	> 100 µM							
C/C(CN1C(=O)c2ccccc2C1=O)=N\NS(=O)(=O)c1ccc2ccccc2c1		> 100 µM	> 100 µM		> 100 µM	> 100 µM		> 100 µM	> 100 µM							
O=C(CCc1n[nH]c(=S)o1)Nc1cc(Cl)ccc1Cl		36.1 µM	> 100 µM		> 100 µM			> 100 µM	> 100 µM							
CC[C@@]1(OP(=O)(O)O)C(=O)OCc2c1cc1n(c2=O)Cc2cc3ccccc3nc2-1	4.59 µM	0.194 µM	44.4 µM		> 100 µM	0.509 µM and 3.37 µM	2.21 µM and 9.34 µM	70.8 µM	6.47 µM and 2.05 µM	0.408 µM	3.81 µM	0.0678 µM	1.88 µM	0.25 µM		
C[N+]1([O-])C2CCC1CC(OC(=O)C(CO)c1ccccc1)C2 (configuration not stated)	> 100 µM															
Cc1ccc(S(=O)c2ccccc2[N+](=O)[O-])cc1 (configuration not stated)		> 100 µM		> 100 µM	> 100 µM	> 100 µM			> 100 µM							
N#CC(C(=O)CCCC(=O)Nc1ccccc1[N+](=O)[O-])c1c(Cl)cccc1Cl (configuration not stated)		> 100 µM	> 100 µM	> 100 µM	> 100 µM	> 100 µM	> 100 µM	> 100 µM	> 100 µM							
CN(C)CCC(N)(P(=O)([O-])[O-])P(=O)([O-])[O-].N.N.[Pt+2]		> 100 µM	> 100 µM		> 100 µM			> 100 µM		> 100 µM	> 100 µM				> 100 µM	> 100 µM
COc1ccc(C2COc3c(ccc(OC)c3OC)C2=O)cc1OC (configuration not stated)			> 100 µM		> 100 µM	> 100 µM	> 100 µM	> 100 µM	> 100 µM							
CC(=O)OCC1C(=O)OCC1C(=O)N1Cc2cc3ccccc3nc2C1 (configuration not stated)	13.1 µM	17.8 µM	10.2 µM			29.8 µM	4.51 µM	5.22 µM	21.2 µM							
Cc1ccc(N)c(S)c1	28.2 µM															
COc1ccc2c(c1)[C@@H](NC(C)=O)CCc1cc(OC)c(OC)c(OC)c1-2	< 0.0204 µM	> 100 µM	> 100 µM		> 100 µM	0.366 µM	16.2 µM	> 100 µM	> 100 µM							
O=C1C2C3CC4C5C3C1C5C1(SCCS1)C42 (configuration not stated)		> 100 µM	> 100 µM		> 100 µM	> 100 µM		> 100 µM	> 100 µM							
NC(N)NCCCc1cn2c(n1)C1CCCN1C(=O)C2Cc1ccccc1 (configuration not stated)		> 100 µM		> 100 µM	> 100 µM	> 100 µM	> 100 µM	> 100 µM	> 100 µM							
CC1(OCc2ccccc2)C(=O)N2C1NCC2(C)C (configuration not stated)		> 100 µM		> 100 µM		> 100 µM	> 100 µM	> 100 µM	> 100 µM							
CCN(CC)C(=O)CCn1ccc(=O)[nH]c1=O		> 100 µM			> 100 µM	> 100 µM	> 100 µM	> 100 µM	> 100 µM							
